IC50 data for 10 compounds are collected here from US20240116985A1, “STAPLED PEPTIDES AND METHODS THEREOF” (priority 2020, published 2024).

Assay [1] deals with T1, beta-catenin/TCF4 engagement (Homo sapiens, UniProt P35222).
T1 construct: expressed in transfected cells; host or cells: HEK293
T1 sequence (P35222 1-781): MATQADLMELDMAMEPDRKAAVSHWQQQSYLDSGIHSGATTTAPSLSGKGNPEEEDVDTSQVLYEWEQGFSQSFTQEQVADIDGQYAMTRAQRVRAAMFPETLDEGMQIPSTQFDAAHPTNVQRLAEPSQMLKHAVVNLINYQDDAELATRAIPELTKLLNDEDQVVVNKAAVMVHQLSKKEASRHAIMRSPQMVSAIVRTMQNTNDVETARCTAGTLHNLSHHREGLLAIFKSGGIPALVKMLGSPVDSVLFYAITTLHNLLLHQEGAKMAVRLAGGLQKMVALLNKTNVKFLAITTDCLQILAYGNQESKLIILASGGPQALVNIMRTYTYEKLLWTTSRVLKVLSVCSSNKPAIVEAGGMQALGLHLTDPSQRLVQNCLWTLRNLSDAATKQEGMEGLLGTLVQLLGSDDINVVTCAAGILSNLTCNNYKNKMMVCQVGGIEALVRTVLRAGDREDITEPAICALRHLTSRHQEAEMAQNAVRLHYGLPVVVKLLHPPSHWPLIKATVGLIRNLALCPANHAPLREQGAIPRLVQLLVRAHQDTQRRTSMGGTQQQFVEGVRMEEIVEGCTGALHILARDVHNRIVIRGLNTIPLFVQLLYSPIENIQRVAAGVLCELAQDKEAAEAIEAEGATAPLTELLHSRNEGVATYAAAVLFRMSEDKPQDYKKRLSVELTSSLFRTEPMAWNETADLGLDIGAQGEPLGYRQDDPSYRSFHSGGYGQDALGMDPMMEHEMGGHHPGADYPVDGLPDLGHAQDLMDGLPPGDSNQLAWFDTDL
As to the kind of experiment: Nano-BRET target engagement assay (B-cat-Halo & TCF4-Luc in HEK293 cells). Type of assay: cell-based. The following applies: absolute IC50; read-out: NanoBRET Abs IC50.

Assay [2] concerns the target T2, full-length beta-Catenin (Uniprot ID P35222) (Homo sapiens, UniProt P35222).
T2 construct: 10 nM full-length beta-Catenin (Uniprot ID P35222)
T2 sequence (P35222 1-781): T1 sequence (P35222 1-781)
As to the kind of experiment: Fluorescence polarization IC50 (beta-catenin / 5FAM-TCF4 10-53 competition). In kind it is binding. The following applies: fluorescence polarization; read-out: beta-Catenin FP IC50. (In general: In fluorescence polarisation assays a small probe gives low polarisation when free and higher when bound to something large.)

The structures appear in SMILES notation. Some results are limits rather than exact numbers.

`CC(=O)N1CCC[C@]12CC=CCCCC1(CCCC=CCCCOC(=O)N3CC[C@@](C(=O)N[C@@H](Cc4ccsc4)C(=O)N[C@@H](Cc4csc5ccccc45)C(=O)N[C@@H](CCC(N)=O)C(N)=O)(C3)NC(=O)[C@H](CC(C)C)NC(=O)[C@H](Cc3ccccc3)NC(=O)[C@H](C)NC(=O)[C@H](C)NC(=O)[C@H](CC(=O)O)NC(=O)[C@H](CC(=O)O)NC1=O)NC(=O)[C@H](CCCCNC(=O)C13CC4(C)CC(C)(CC(C)(C4)C1)C3)NC(=O)[C@H](CC(=O)O)NC2=O` (stereo partly drawn) [I-1471, Ac-PL3-Asp-[Me3AdamantC]-Lys-B5-Asp-Asp-Ala-Ala-Phe-Leu-PyrS2-3Thi-BztA-Gln-NH2]: the IC50 in assay [1] is greater than 20000 nM; in assay [2], 34 nM.

In the case of `CC(=O)N1CCC[C@]12CC=CCCCC1(CCCC=CCCCOC(=O)N3CC[C@@](C(=O)N[C@@H](Cc4ccsc4)C(=O)N[C@@H](Cc4csc5ccccc45)C(=O)N[C@@H](CCC(N)=O)C(N)=O)(C3)NC(=O)[C@H](CC(C)C)NC(=O)[C@H](Cc3ccccc3)NC(=O)[C@H](C)NC(=O)[C@H](C)NC(=O)[C@H](CC(=O)O)NC(=O)[C@H](CC(=O)O)NC1=O)NC(=O)[C@H](CCCCNC(=O)COCCOCCNC(=O)C13CC4(C)CC(C)(CC(C)(C4)C1)C3)NC(=O)[C@H](CC(=O)O)NC2=O` (stereo partly drawn) [I-1472, Ac-PL3-Asp-[Me3AdamantC-PEG2]-Lys-B5-Asp-Asp-Ala-Ala-Phe-Leu-PyrS2-3Thi-BztA-Gln-NH2], the IC50 was greater than 20000 nM in assay [1] and 12 nM in assay [2].

As to `CC(=O)N1CCC[C@]12CC=CCCCC1(CCCC=CCCCOC(=O)N3CC[C@@](C(=O)N[C@@H](Cc4ccsc4)C(=O)N[C@@H](Cc4csc5ccccc45)C(=O)N[C@@H](CCC(N)=O)C(N)=O)(C3)NC(=O)[C@H](CC(C)C)NC(=O)[C@H](Cc3ccccc3)NC(=O)[C@H](CCCCNC(=O)COCCOCCNC(=O)CC[C@@H](C)[C@H]3CC[C@H]4[C@@H]5CC[C@@H]6C[C@H](O)CC[C@]6(C)[C@H]5CC[C@]34C)NC(=O)[C@H](C)NC(=O)[C@H](CC(=O)O)NC(=O)[C@H](CC(=O)O)NC1=O)NC(=O)[C@H](CC(C)(C)C)NC(=O)[C@H](CC(=O)O)NC2=O` (stereo partly drawn) [I-1474, Ac-PL3-Asp-Npg-B5-Asp-Asp-Ala-[lithocholate-PEG2]-Lys-Phe-Leu-PyrS2-3Thi-BztA-Gln-NH2], the IC50 in assay [1] was greater than 20000 nM; in assay [2] it was 41 nM.

For the compound `CC(=O)N1CCC[C@]12CC=CCCCC1(CCCC=CCCCOC(=O)N3CC[C@@](C(=O)N[C@@H](Cc4ccsc4)C(=O)N[C@@H](Cc4csc5ccccc45)C(=O)N[C@@H](CCC(N)=O)C(N)=O)(C3)NC(=O)[C@H](CC(C)C)NC(=O)[C@H](Cc3ccccc3)NC(=O)[C@H](CCCCNC(=O)COCCOCCNC(=O)C34CC5(C)CC(C)(CC(C)(C5)C3)C4)NC(=O)[C@H](C)NC(=O)[C@H](CC(=O)O)NC(=O)[C@H](CC(=O)O)NC1=O)NC(=O)[C@H](CC(C)(C)C)NC(=O)[C@H](CC(=O)O)NC2=O` (stereo partly drawn) [I-1476, Ac-PL3-Asp-Npg-B5-Asp-Asp-Ala-[Me3AdamantC-PEG2]-Lys-Phe-Leu-PyrS2-3Thi-BztA-Gln-NH2], the figures for the IC50 in assay [1] and in assay [2] were greater than 20000 nM and 16 nM, respectively.

On to `CC(=O)N1CCC[C@]12CC=CCCCC1(CCCC=CCCCOC(=O)N3CC[C@@](C(=O)N[C@@H](Cc4ccsc4)C(=O)N[C@@H](Cc4csc5ccccc45)C(=O)N[C@@H](CCC(N)=O)C(=O)N[C@@H](CCCCNC(=O)COCCOCCNC(=O)CC[C@@H](C)[C@H]4CC[C@H]5[C@@H]6CC[C@@H]7C[C@H](O)CC[C@]7(C)[C@H]6CC[C@]45C)C(N)=O)(C3)NC(=O)[C@H](CC(C)C)NC(=O)[C@H](Cc3ccccc3)NC(=O)[C@H](C)NC(=O)[C@H](C)NC(=O)[C@H](CC(=O)O)NC(=O)[C@H](CC(=O)O)NC1=O)NC(=O)[C@H](CC(C)(C)C)NC(=O)[C@H](CC(=O)O)NC2=O` (stereo partly drawn) [I-1478, Ac-PL3-Asp-Npg-B5-Asp-Asp-Ala-Ala-Phe-Leu-PyrS2-3Thi-BztA-Gln-[lithocholate-PEG2]-Lys-NH2], for which the results for the IC50 in assay [1] and in assay [2] were 17100 nM and 75 nM, respectively.

As for `CC(=O)N1CCC[C@]12CC=CCCCC1(CCCC=CCCCOC(=O)N3CC[C@@](C(=O)N[C@@H](Cc4ccsc4)C(=O)N[C@@H](Cc4csc5ccccc45)C(=O)N[C@@H](CCC(N)=O)C(=O)N[C@@H](CCCCNC(=O)COCCOCCNC(=O)C45CC6(C)CC(C)(CC(C)(C6)C4)C5)C(N)=O)(C3)NC(=O)[C@H](CC(C)C)NC(=O)[C@H](Cc3ccccc3)NC(=O)[C@H](C)NC(=O)[C@H](C)NC(=O)[C@H](CC(=O)O)NC(=O)[C@H](CC(=O)O)NC1=O)NC(=O)[C@H](CC(C)(C)C)NC(=O)[C@H](CC(=O)O)NC2=O` (stereo partly drawn) [I-1480, Ac-PL3-Asp-Npg-B5-Asp-Asp-Ala-Ala-Phe-Leu-PyrS2-3Thi-BztA-Gln-Me3AdamantC-PEG2]-Lys-NH2], the IC50 in assay [1] turned out to be 9300 nM; in assay [2], 37 nM.

In the case of `CC(=O)N1CCC[C@]12CC=CCCCC1(CCCC=CCCCOC(=O)N3CC[C@@](C(=O)N[C@@H](Cc4ccsc4)C(=O)N[C@@H](Cc4csc5ccccc45)C(=O)N[C@@H](CCC(N)=O)C(N)=O)(C3)NC(=O)[C@H](CC(C)C)NC(=O)[C@H](Cc3ccccc3)NC(=O)[C@H](C)NC(=O)[C@H](CCCN3CCC(F)(F)CC3)NC(=O)[C@H](CC(=O)O)NC(=O)[C@H](CC(=O)O)NC1=O)NC(=O)[C@H](CC(C)(C)C)NC(=O)[C@H](CC(=O)O)NC2=O` (stereo partly drawn) [I-1482, Ac-PL3-Asp-Npg-B5-Asp-Asp-F2PipNva-Ala-Phe-Leu-PyrS2-3Thi-BztA-Gln-NH2], the IC50 in assay [1] was determined as 18000 nM; in assay [2] it was 7 nM.

In the case of `CC(=O)N1CCC[C@]12CC=CCCCC1(CCCC=CCCCOC(=O)N3CC[C@@](C(=O)N[C@@H](Cc4ccsc4)C(=O)N[C@@H](Cc4csc5ccccc45)C(=O)N[C@@H](CCC(N)=O)C(N)=O)(C3)NC(=O)[C@H](CC(C)C)NC(=O)[C@H](Cc3ccccc3)NC(=O)[C@H](C)NC(=O)[C@H](CC(=O)N3CCOCC3)NC(=O)[C@H](CC(=O)O)NC(=O)[C@H](CC(=O)O)NC1=O)NC(=O)[C@H](CC(C)(C)C)NC(=O)[C@H](CC(=O)O)NC2=O` (stereo partly drawn) [I-1483, Ac-PL3-Asp-Npg-B5-Asp-Asp-MorphAsn-Ala-Phe-Leu-PyrS2-3Thi-BztA-Gln-NH2], the IC50 in assay [1] was greater than 20000 nM; in assay [2], 22 nM.

In the case of `CC(=O)N1CCC[C@]12CC=CCCCC1(CCCC=CCCCOC(=O)N3CC[C@@](C(=O)N[C@@H](Cc4ccsc4)C(=O)N[C@@H](Cc4csc5ccccc45)C(=O)N[C@@H](CCC(N)=O)C(N)=O)(C3)NC(=O)[C@H](CC(C)C)NC(=O)[C@H](Cc3ccccc3)NC(=O)[C@H](C)NC(=O)[C@H](CC(=O)N3CCN(C)CC3)NC(=O)[C@H](CC(=O)O)NC(=O)[C@H](CC(=O)O)NC1=O)NC(=O)[C@H](CC(C)(C)C)NC(=O)[C@H](CC(=O)O)NC2=O` (stereo partly drawn) [I-1484, Ac-PL3-Asp-Npg-B5-Asp-Asp-MePpzAsn-Ala-Phe-Leu-PyrS2-3Thi-BztA-Gln-NH2], the IC50 in assay [1] is greater than 20000 nM; in assay [2], 30 nM.

As for `CC(=O)N1CCC[C@]12CC=CCCCC1(CCCC=CCCCOC(=O)N3CC[C@@](C(=O)N[C@@H](Cc4ccsc4)C(=O)N[C@@H](Cc4csc5ccccc45)C(=O)N[C@@H](CCC(N)=O)C(N)=O)(C3)NC(=O)[C@H](CCCN3CCOCC3)NC(=O)[C@H](Cc3ccccc3)NC(=O)[C@H](C)NC(=O)[C@H](C)NC(=O)[C@H](CC(=O)O)NC(=O)[C@H](CC(=O)O)NC1=O)NC(=O)[C@H](CC(C)(C)C)NC(=O)[C@H](CC(=O)O)NC2=O` (stereo partly drawn) [I-1485, Ac-PL3-Asp-Npg-B5-Asp-Asp-Ala-Ala-Phe-MorphNva-PyrS2-3Thi-BztA-Gln-NH2], the results for the IC50 in assay [1] and in assay [2] were 25800 nM and 7 nM, respectively.

By IC50 is commonly meant the midpoint of a concentration-inhibition curve.
